Among the data in PubChem BioAssay (NCI) are TGI values, retold here.

Common to all, as to assay: inhibition of tumour cell growth, NCI panel, 48 h
Experiment [1] concerns HCC-2998 colon.
The subject of experiment [2] is HCT-116 colon.
Experiment [3] relates to SW-620 colon.
Experiment [4] concerns SF-268 CNS.
For experiment [5], the system named is MDA-MB-435.
Experiment [6] deals with HT29 colon.
The test system of experiment [7] is TK-10 renal.
Experiment [8] relates to UACC-257 melanoma.
Experiment [9] relates to HOP-92 NSCLC.
For experiment [10], the system named is BT-549 breast.

Each structure is given as a SMILES string.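 Values below derive from 48-hour exposures of cells grown in 96-well plates, with endpoints linearly interpolated between the two concentrations bracketing the appropriate inhibition level. TGI marks complete inhibition of growth.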

In the case of `NC(=O)CC(N)C(=O)NC(Cc1ccccc1)C(=O)NC(Cc1ccccc1)NC(=O)C(Cc1c[nH]c2ccccc12)C(=O)O` (configuration not stated), the TGI in experiment [1], in experiment [2], in experiment [3], in [4], in experiment [5] and in experiment [6] was over 100 µM each time. For the same compound, the TGI in [7], in experiment [8] and in experiment [9] was over 100 µM each time.

Turning to `O=C(OC1CN2CCC1CC2)N(c1ccccc1)c1ccccc1` (configuration not stated), the TGI in experiment [2], in experiment [4], in experiment [10], in experiment [5], in experiment [6] and in [7] was over 100 µM throughout. Moreover, the TGI in experiment [8] and in experiment [9] was over 100 µM throughout.

For `CN(O)C(=O)CCCC(=O)NCC(C)(C)CNC(=O)CCCC(=O)N(C)O`, the TGI in experiment [1], in experiment [3], in [4], in experiment [5], in experiment [6] and in experiment [7] was over 100 µM throughout. The TGI in experiment [8] and in experiment [9] was over 100 µM throughout.

As for `C#C[C@@]1(O)CCCC2=CC3(CC[C@]21C)SCCS3`, the TGI in experiment [1], in experiment [2], in experiment [3], in [4], in experiment [5] and in [6] was over 100 µM in each case. In addition, the TGI in experiment [7], in experiment [8] and in experiment [9] was over 100 µM throughout.

On to `Cn1c2ccccc2c2cc(N3CCCC3)c3c(c21)C(=O)N(c1ccccc1)C3=O`, for which the TGI in experiment [1], in experiment [2], in experiment [3], in [4], in [10] and in experiment [5] was over 100 µM each time. In addition, the TGI in [6], in experiment [7] and in experiment [8] was over 100 µM in each case.

In the case of `CCOC(=O)CCN1C(=O)C(=O)N(c2ccc(OC)cc2)C1=S`, the TGI in experiment [1], in [2], in experiment [3], in experiment [4], in experiment [5] and in experiment [6] was over 100 µM each time. For the same compound, the TGI in experiment [7], in experiment [8] and in [9] was over 100 µM each time.

Turning to `O=C(c1cccs1)N1CCCN(C(=O)c2cccs2)C1=S`, the TGI in experiment [2], in experiment [3], in [4], in experiment [10], in experiment [5] and in experiment [6] was over 100 µM in each case. For the same compound, the TGI in experiment [7] and in experiment [8] was over 100 µM each time.

As to `C=CCOC(=O)N1c2ccc(O)cc2[C@@]23O[C@@]24[C@@H]1C#C/C=C\C#C[C@]3(O)C(OC)(OC)C[C@@H]4C`, the TGI was over 100 µM in experiment [1]; over 100 µM in experiment [2]; over 100 µM in experiment [3]; over 100 µM in experiment [4]; 53.7 µM in experiment [5]; 49.8 µM in experiment [6]. Further, the TGI in experiment [7] is over 100 µM; in [8], 44.1 µM; in experiment [9], 77.9 µM.

Regarding `O=C(N/N=C\c1cccc2ccccc12)Nc1cccc2ccccc12`, the TGI in [1] is over 100 µM; in [2], 72 µM; in experiment [3], over 100 µM; in experiment [4], over 100 µM; in experiment [10], over 100 µM; in [5] it was 24.3 µM. Besides, the TGI in experiment [6] is over 100 µM; in experiment [7] it was 56.5 µM; in experiment [8] it was over 100 µM.

As to `O=c1[nH]c2nccn2c2c1SCCN2`, the TGI in experiment [1], in experiment [2], in experiment [3], in [4], in experiment [10] and in experiment [5] was over 100 µM each time. Also, the TGI in experiment [6], in [7] and in [8] was over 100 µM throughout.

As for `CC(C)C(=O)/C=C/S/C=C/C(=O)C(C)C`, the TGI in [3] is 17 µM; in [4], over 100 µM; in [5] it was 30.1 µM; in [6], over 100 µM; in experiment [7], over 100 µM; in experiment [8], 6.5 µM.

`C=CCOC(OCC=C)/C(Br)=C/C`: the TGI in experiment [1] was over 100 µM; in experiment [2] it was 28.1 µM; in experiment [3] it was over 100 µM; in experiment [4] it was 75.2 µM; in [5] it was over 100 µM; in experiment [6], 62.3 µM. Also, the TGI in [7], in [8] and in experiment [9] was over 100 µM in each case.

Regarding `CNC(=O)SCC(NC(=O)CCC(N)C(=O)O)C(=O)NCC(=O)O` (configuration not stated), the TGI in experiment [1], in experiment [2], in [3], in [4], in experiment [6] and in experiment [8] was over 100 µM in each case. This compound returned a TGI in experiment [9] of over 100 µM.

In the case of `COC(=O)c1c2c(cc3c1CC1(Cc4cc5c(c(C(C)=O)c4C1)CCCC5)C3)CCCC2` (configuration not stated), the TGI in experiment [1], in experiment [2], in experiment [5], in [6], in experiment [7] and in experiment [8] was over 100 µM throughout. In addition, the TGI in [9] is over 100 µM.

Turning to `C=CC(C)C1(CCCOCc2ccccc2)C(=S)N2CCC3(CC24CCCC14)OCCO3` (configuration not stated), the TGI in [1], in experiment [3], in [4], in experiment [6], in experiment [7] and in experiment [8] was over 100 µM each time.
